Results taken from ChEMBL document CHEMBL1201862, “PubChem BioAssay data set” (2004).
The source made the active and inactive calls.

Assays:
[1] = molecular target: T1, Corticotropin-releasing factor receptor 2/Corticotropin-releasing factor-binding protein (Homo sapiens, UniProt P24387+Q13324); assay: Dose Response confirmation of uHTS hits for small molecule antagonists of the CRF-binding protein and CRF-R2 receptor complex.; type: functional; settings: read-out: IC50_Mean
T1 sequence (Q13324 whole entry): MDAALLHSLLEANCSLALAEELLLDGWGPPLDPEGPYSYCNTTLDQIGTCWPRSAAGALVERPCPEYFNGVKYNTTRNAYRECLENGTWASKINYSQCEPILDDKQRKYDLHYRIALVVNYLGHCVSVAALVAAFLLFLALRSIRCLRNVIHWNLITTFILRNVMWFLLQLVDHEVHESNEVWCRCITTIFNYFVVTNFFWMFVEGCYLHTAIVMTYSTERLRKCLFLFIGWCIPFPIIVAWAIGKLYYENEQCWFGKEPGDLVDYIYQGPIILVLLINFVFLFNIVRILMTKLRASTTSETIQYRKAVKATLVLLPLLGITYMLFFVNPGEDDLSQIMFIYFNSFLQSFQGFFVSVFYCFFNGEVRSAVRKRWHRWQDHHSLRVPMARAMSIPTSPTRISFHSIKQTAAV
T1 sequence (P24387 whole entry): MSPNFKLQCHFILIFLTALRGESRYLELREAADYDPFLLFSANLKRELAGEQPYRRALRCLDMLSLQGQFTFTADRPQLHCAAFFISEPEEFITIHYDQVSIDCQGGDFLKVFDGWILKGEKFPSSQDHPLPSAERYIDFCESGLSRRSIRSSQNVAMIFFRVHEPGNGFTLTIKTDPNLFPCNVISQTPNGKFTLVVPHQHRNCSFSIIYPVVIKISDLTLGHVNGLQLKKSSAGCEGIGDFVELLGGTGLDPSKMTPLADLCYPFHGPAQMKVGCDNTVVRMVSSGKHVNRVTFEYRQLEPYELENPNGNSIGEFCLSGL

[2] = HPDE-C7 pancreatic duct cell viability loss – fluorescence, HTS (AID 430); type: functional, cell-based; settings: Homo sapiens
[3] = molecular target: T1, Corticotropin-releasing factor receptor 2/Corticotropin-releasing factor-binding protein; assay: activators of CRF receptor 2 with binding protein – uHTS hits, confirmation (AID 602473); type: functional; settings: read-out: EC50_Mean
[4] = viability loss of HPDE-C7K cells – cell-based, fluorescence, HTS, primary screen (AID 431); type: functional; settings: Homo sapiens
[5] = reduced cellular PGC1a acetyl-lysine signal – cell-based, cherry-picked samples, dose response (AID 720514); type: functional;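 note: potency may reflect raised or lowered acetylation signal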
[6] = molecular target: T2, Aryl hydrocarbon receptor (Homo sapiens, UniProt P35869); assay: Luminescence-based cell-based high throughput dose response assay for activators of the Aryl Hydrocarbon Receptor (AHR). [Related pubchem assays: 2796 (Primary screen (AHR activators in singlicate)), 2845 (Confirmation screen (AHR activators in triplicate)), 434939 (Counterscreen (PXR activators in triplicate)), 2804 (Summary (AHR activators))]; type: ADME
T2 sequence (P35869 whole entry): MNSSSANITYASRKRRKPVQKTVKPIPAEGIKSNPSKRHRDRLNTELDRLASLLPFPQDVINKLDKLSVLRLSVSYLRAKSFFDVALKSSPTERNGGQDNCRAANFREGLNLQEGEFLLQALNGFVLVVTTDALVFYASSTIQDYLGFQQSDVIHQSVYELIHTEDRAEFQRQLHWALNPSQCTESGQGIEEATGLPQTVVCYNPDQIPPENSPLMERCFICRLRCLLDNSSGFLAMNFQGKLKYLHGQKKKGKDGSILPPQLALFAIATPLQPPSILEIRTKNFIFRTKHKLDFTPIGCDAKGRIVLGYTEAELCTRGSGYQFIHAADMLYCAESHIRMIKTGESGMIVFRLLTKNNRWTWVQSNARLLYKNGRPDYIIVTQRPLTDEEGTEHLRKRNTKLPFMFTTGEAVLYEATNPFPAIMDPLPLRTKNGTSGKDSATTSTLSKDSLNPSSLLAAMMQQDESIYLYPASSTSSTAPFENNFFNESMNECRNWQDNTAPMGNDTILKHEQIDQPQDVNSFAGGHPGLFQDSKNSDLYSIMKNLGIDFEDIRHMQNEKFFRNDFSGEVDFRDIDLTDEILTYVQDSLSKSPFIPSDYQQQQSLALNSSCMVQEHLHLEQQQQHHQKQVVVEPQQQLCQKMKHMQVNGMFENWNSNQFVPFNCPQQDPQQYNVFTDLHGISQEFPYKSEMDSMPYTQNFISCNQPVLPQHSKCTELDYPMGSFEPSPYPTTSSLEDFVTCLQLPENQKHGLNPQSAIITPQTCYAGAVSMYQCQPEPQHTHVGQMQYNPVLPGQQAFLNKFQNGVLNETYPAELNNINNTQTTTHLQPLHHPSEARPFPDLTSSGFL

[7] = molecular target: T3, Mannose-6-phosphate isomerase (Homo sapiens, UniProt P34949); assay: MPI enzyme activity inhibition – biochemical, fluorescence intensity, coupled assay, primary screen (AID 1209)
T3 sequence (P34949 whole entry): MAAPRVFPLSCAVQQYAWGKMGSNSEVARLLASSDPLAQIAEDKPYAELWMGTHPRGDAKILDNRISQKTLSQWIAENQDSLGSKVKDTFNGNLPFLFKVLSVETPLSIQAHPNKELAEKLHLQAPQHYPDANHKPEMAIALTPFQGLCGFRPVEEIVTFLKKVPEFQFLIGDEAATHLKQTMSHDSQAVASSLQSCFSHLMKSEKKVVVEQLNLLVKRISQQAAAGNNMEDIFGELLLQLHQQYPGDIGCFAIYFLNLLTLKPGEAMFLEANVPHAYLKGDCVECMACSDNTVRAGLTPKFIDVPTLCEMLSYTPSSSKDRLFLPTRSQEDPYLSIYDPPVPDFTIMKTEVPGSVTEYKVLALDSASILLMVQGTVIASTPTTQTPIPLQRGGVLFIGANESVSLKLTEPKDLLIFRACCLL

[8] = molecular target: T3, Mannose-6-phosphate isomerase; assay: MPI inhibition at elevated mannose 6-phosphate – biochemical, fluorescence intensity, high mannose 6-phosphate, primary screen (AID 1220)
[9] = molecular target: DNA damage-inducible transcript 3 protein (Mus musculus, UniProt P35639); type: functional, Cricetulus griseus
[10] = molecular target: Protein Tat (Human immunodeficiency virus type 1 group M subtype B (isolate HXB2)(HIV-1), UniProt P04608); type: functional;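 note: tat binding to TAR RNA read out by fluorescence polarization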
[11] = molecular target: SUMO-activating enzyme (Homo sapiens, UniProt Q9UBT2); assay: blockers of UBC9-mediated SUMO conjugation – biochemical, AlphaScreen, SUMOylation inhibitor project, confirmation (AID 2018); type: functional
[12] = tested on: Vero; assay: cells; type: functional; settings: Chlorocebus sabaeus
[13] = activation of miR-122 Renilla sensor silencing – cell-based, Huh7 psiCHECK-miR122, Renilla luciferase, cherry-picked, dose response (AID 651956); type: functional;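 note: huh7 hepatoma cells stably carrying a psiCHECK-2 miR-122 sensor plasmid; renilla luciferase signal reporting endogenous miR-122 activity after 48 h compound exposure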
[14] = general mammalian cell viability loss – inhibitor set, cherry-pick, set 2, cytotoxicity control for miR-122 modulator project, dose response (AID 720697); type: functional, cell-based
[15] = molecular target: Troponin, cardiac muscle (Homo sapiens, UniProt P19429+P45379+P63316); assay: Fluorescence-based biochemical high throughput dose response assay for activators of the calcium sensitivity of cardiac Regulated Thin Filaments (RTF). [Related pubchem assays (depositor defined):AID493008, AID493018, AID504382, AID504383]; type: protein-complex assay
[16] = molecular target: Paired box protein Pax-8 (Homo sapiens, UniProt Q06710); assay: PAX8 transcriptional activity inhibition in RMG-I – RMG-I cells, luciferase, cherry-pick, dose response (AID 687027); type: functional, cell-based;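 note: luciferase reporter driven by Pax8 target thyroperoxidase promoter measured by SteadyGlo luminescence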
[17] = general mammalian cell viability loss – activator set, cherry-pick, cytotoxicity control for miR-122 modulator project, dose response (AID 720690); type: functional, cell-based;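 note: HEK293T human cells scored for general mammalian cytotoxicity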
[18] = general cell-killing toxicity readout – plate reader, dry powder samples, cytotoxicity control for PAX8 inhibitor project, dose response (AID 743021); type: functional, cell-based
[19] = fluconazole-exposed Candida albicans growth modulators – fluorescence, retest, confirmation (AID 2467); type: functional, cell-based
[20] = NIH-3T3 fibroblast cytotoxicity, dose response, cytotoxicity control, cell-based, fluorescence, Alamar Blue, secondary assay (AID 2327); type: functional;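 note: NIH-3T3 mouse fibroblasts cultured with fluconazole at 8 µg/mL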
[21] = Luminescence Cell-Based Dose Retest to Confirm Inhibitors of Cancer Stem Cells. [Related pubchem assays (depositor defined):AID2717, AID2721]; type: functional; settings: Homo sapiens

Protein Tat, sequence (P04608 whole entry): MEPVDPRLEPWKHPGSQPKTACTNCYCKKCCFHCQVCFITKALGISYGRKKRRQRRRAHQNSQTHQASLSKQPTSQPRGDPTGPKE
DNA damage-inducible transcript 3 protein, sequence (P35639 whole entry): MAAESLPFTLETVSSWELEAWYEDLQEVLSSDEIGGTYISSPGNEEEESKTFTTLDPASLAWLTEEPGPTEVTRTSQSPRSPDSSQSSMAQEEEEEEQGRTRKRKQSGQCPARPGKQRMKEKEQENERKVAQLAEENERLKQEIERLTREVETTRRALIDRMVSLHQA
Paired box protein Pax-8, sequence (Q06710 whole entry): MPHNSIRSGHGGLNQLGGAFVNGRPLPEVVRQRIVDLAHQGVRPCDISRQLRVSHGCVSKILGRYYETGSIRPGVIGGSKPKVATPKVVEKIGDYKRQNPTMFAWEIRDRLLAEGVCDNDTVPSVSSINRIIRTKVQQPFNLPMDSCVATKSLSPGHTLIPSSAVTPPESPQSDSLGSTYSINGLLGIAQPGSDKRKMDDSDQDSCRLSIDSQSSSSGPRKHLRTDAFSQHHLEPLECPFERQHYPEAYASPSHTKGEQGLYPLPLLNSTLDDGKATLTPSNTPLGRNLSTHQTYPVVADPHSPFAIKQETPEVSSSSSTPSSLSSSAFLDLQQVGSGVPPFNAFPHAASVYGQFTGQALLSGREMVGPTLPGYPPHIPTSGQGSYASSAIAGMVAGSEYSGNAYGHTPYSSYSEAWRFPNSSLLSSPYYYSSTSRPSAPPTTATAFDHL
SUMO-activating enzyme, sequence (Q9UBE0 whole entry): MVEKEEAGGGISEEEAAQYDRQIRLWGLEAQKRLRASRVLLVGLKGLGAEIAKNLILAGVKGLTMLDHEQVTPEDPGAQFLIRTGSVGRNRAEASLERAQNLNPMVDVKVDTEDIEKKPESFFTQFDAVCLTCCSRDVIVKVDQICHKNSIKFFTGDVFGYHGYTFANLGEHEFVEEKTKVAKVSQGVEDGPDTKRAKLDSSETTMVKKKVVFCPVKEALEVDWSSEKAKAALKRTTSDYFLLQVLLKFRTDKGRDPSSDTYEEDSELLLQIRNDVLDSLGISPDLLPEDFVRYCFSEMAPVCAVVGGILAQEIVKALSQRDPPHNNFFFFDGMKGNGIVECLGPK
SUMO-activating enzyme, sequence (Q9UBT2 whole entry): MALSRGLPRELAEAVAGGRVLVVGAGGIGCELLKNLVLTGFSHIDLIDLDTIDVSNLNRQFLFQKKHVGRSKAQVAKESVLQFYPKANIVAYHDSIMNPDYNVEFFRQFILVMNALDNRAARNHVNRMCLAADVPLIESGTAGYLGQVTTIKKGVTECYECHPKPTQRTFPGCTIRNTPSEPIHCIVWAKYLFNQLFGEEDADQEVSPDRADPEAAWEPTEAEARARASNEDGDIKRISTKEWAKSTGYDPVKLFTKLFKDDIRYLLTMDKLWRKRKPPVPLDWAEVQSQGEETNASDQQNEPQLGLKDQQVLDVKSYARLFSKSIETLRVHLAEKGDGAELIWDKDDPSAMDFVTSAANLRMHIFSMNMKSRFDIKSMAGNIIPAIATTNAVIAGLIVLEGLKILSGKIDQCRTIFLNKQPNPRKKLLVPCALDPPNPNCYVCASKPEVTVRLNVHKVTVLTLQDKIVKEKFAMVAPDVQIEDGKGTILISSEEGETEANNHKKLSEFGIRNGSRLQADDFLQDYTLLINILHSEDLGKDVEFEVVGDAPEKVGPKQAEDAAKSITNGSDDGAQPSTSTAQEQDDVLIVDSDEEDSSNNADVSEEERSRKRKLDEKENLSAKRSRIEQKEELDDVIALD

C=C(C)COc1ccc(-c2n[nH]cc2Oc2ccccc2OC)c(O)c1
IC50 [1]: 1.91 µM (active)
EC50 [2]: 12.3 µM (active)
EC50 [3]: > 53 µM (inactive)
EC50 [4]: 9.78 µM (active)

CC(=O)c1ccc(Nc2cc(C)nc3ccc(C)cc23)cc1
AC50 [5]: 6.09 µM (active)

COc1ccc(C(=O)Nc2cc(OC)c(NC(=O)c3ccco3)cc2OC)cc1
EC50 [6]: 1.76 µM (active)

CC1=Nc2nc3c(c4c(C#N)c(N5CCCCC5)nc(c24)N1)CC(=O)N3c1ccc(C(C)C)cc1.CN(C)C=O
IC50 [7]: > 50 µM (not active)
IC50 [8]: > 50 µM (not active)
Absolute IC50 (CHOP) [9]: 10 µM
IC50 [10]: > 100 µM (active)
IC50 [11]: 11.7 µM (active)

Cn1ncc2c(ON=C(N)c3ccc(C(F)(F)F)cc3)ncnc21
CC50 [12]: 8.98 µM (active)
AC50 [5]: 4.71 µM (active)
AC50 [13]: 20.8 µM (active)
AC50 [14]: 9.49 µM (active)
EC50 [15]: > 71.5 µM (inactive)
AC50 [16]: 6.71 µM (active)
AC50 [17]: 14 µM (active)
AC50 [18]: 66.7 µM (active)

Cc1ccc(S(=O)(=O)c2c(C)nn(C(C)(C)C)c2OC(=O)c2ccc(Br)o2)cc1
EC50 [19]: 0.805 µM (active)
EC50 [2]: 4.41 µM (active)
EC50 [20]: > 160 µM (inconclusive)
EC50 [4]: 4.56 µM (active)
AC50 [21]: 1.67 µM (active)
